The first test concerns the target human orexin-2 receptor (Homo sapiens (Human), UniProt O43614). Put plainly: Human orexin 2 receptor radioligand binding ([3H]-EMPA competition). The conditions noted are these: HEK293 cells stably expressing human orexin-2 receptor; [3H]-EMPA 5 nM final; apparent Ki=IC50/(1+C/Kd), Kd=2 nM; read-out: OR 2 Ki.
Sequence of human orexin-2 receptor (O43614 whole entry): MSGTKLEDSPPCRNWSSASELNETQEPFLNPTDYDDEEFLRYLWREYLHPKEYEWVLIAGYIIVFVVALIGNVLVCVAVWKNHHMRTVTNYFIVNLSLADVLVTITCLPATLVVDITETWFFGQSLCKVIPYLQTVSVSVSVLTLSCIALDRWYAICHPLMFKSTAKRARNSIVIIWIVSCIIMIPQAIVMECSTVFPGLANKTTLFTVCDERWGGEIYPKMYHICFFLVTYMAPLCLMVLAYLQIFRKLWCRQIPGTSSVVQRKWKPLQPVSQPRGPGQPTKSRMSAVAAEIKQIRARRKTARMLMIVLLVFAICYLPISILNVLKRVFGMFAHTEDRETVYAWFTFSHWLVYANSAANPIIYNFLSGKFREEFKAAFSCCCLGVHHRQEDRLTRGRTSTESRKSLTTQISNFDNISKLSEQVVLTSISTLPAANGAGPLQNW
In the case of `O=C(c1c(F)cccc1-n1nccn1)N1CC2CN(c3cnc4cc(F)c(F)cc4n3)CC2C1` (stereo not drawn) [Example 246, (5-(6,7-Difluoroquinoxalin-2-yl)hexahydropyrrolo[3,4-c]pyrrol-2(1H)-yl)(2-fluoro-6-(2H-1,2,3-triazol-2-yl)phenyl)methanone], the Ki stood at 11 nM.
The same measure, in the same setting: then `O=C(c1cccc(F)c1Br)N1CC2CN(c3ncc4cc(F)ccc4n3)CC2C1` (stereo not drawn) [Example 247, (2-Bromo-3-fluorophenyl)(5-(6-fluoroquinazolin-2-yl)hexahydropyrrolo[3,4-c]pyrrol-2(1H)-yl)methanone], with 650 nM; and `Cc1ccc(-c2cc(F)ccc2C(=O)N2CC3CN(c4nc(C)cc(C)n4)CC3C2)nc1` (stereo not drawn) [Example 248, (5-(4,6-dimethylpyrimidin-2-yl)hexahydropyrrolo[3,4-c]pyrrol-2(1H)-yl)(4-fluoro-2-(5-methylpyridin-2-yl)phenyl)methanone], with 170 nM.
The same measure, in the same setting: to `Cc1cc(N2CC3CN(C(=O)c4nc(C)sc4-c4ccc(F)cc4)CC3C2)nc(C)n1` (stereo not drawn) [Example 253, 2-(2,6-Dimethylpyrimidin-4-yl)-5-{[5-(4-fluorophenyl)-2-methyl-1,3-thiazol-4-yl]carbonyl}octahydropyrrolo[3,4-c]pyrrole] belongs 5000 nM; to `Cc1cc(C)nc(N2CC3CN(C(=O)c4nc(C)sc4-c4ccc(F)cc4)CC3C2)n1` (stereo not drawn) [Example 254, 2-(4,6-Dimethylpyrimidin-2-yl)-5-{[5-(4-fluorophenyl)-2-methyl-1,3-thiazol-4-yl]carbonyl}octahydropyrrolo[3,4-c]pyrrole], 2200 nM.
Still for that read-out and setting: then `Cc1nc(=O)cc(N2CC3CN(C(=O)c4nc(C)sc4-c4ccc(F)cc4)CC3C2)[nH]1` (stereo not drawn) [Example 255, 6-[5-{[5-(4-Fluorophenyl)-2-methyl-1,3-thiazol-4-yl]carbonyl}hexahydropyrrolo[3,4-c]pyrrol-2(1H)-yl]-2-methylpyrimidin-4(3H)-one], with 10000 nM; and `O=C(O)c1cnc(N2CC3CN(C(=O)c4c(F)cccc4-n4nccn4)CC3C2)nc1C(F)(F)F` (stereo not drawn) [Example 263, 2-(5-(2-Fluoro-6-(2H-1,2,3-triazol-2-yl)benzoyl)hexahydropyrrolo[3,4-c]pyrrol-2(1H)-yl)-4-(trifluoromethyl)pyrimidine-5-carboxylic acid], with 10000 nM.
As to `Cc1cc(C(=O)O)nc(N2CC3CN(C(=O)c4c(F)cccc4-n4nccn4)CC3C2)n1` (stereo not drawn) [Example 265, 2-(5-(2-Fluoro-6-(2H-1,2,3-triazol-2-yl)benzoyl)hexahydropyrrolo[3,4-c]pyrrol-2(1H)-yl)-6-methylpyrimidine-4-carboxylic acid], the Ki came to 9000 nM.
Turning to `Cc1cc(C)nc(N2CC3CN(C(=O)c4cccc(C)c4-n4ccnn4)CC3C2)n1` (stereo not drawn) [Example 267, (5-(4,6-Dimethylpyrimidin-2-yl)hexahydropyrrolo[3,4-c]pyrrol-2(1H)-yl)(3-methyl-2-(1H-1,2,3-triazol-1-yl)phenyl)methanone], the Ki was found to be 10000 nM.
Consider `Cc1cc(C)c(C(=O)N2CC3CN(c4nc(C)cc(C)n4)CC3C2)c(C)c1` (stereo not drawn) [Example 270, (5-(4,6-Dimethylpyrimidin-2-yl)hexahydropyrrolo[3,4-c]pyrrol-2(1H)-yl)(mesityl)methanone], for which the Ki worked out at 1030 nM.
On the same count and under the same terms, then `Cc1cc(C)nc(N2CC3CN(C(=O)c4cccc(F)c4F)CC3C2)n1` (stereo not drawn) [Example 271, (2,3-Difluorophenyl)(5-(4,6-dimethylpyrimidin-2-yl)hexahydropyrrolo[3,4-c]pyrrol-2(1H)-yl)methanone], with 5000 nM; and `COc1ccc(C(=O)N2CC3CN(c4nc(C)cc(C)n4)CC3C2)c(-c2ncccn2)c1` (stereo not drawn) [Example 272, (5-(4,6-Dimethylpyrimidin-2-yl)hexahydropyrrolo[3,4-c]pyrrol-2(1H)-yl)(4-methoxy-2-(pyrimidin-2-yl)phenyl)methanone], with 33 nM.
`COc1cccc(C(=O)N2CC3CN(c4nc(C)cc(C)n4)CC3C2)c1OC` (stereo not drawn) [Example 273, (2,3-Dimethoxyphenyl)(5-(4,6-dimethylpyrimidin-2-yl)hexahydropyrrolo[3,4-c]pyrrol-2(1H)-yl)methanone]: the Ki stood at 5000 nM.
For `Cc1cc(C)nc(N2CC3CN(C(=O)c4ccccc4OC(F)(F)F)CC3C2)n1` (stereo not drawn) [Example 274, (5-(4,6-Dimethylpyrimidin-2-yl)hexahydropyrrolo[3,4-c]pyrrol-2(1H)-yl)(2-(trifluoromethoxy)phenyl)methanone], the Ki was found to be 61 nM.
The same measure, in the same setting: to `COc1cc(C)ccc1C(=O)N1CC2CN(c3nc(C)cc(C)n3)CC2C1` (stereo not drawn) [Example 276, (5-(4,6-Dimethylpyrimidin-2-yl)hexahydropyrrolo[3,4-c]pyrrol-2(1H)-yl)(2-methoxy-4-methylphenyl)methanone] belongs 2950 nM; to `COc1ccc(C(=O)N2CC3CN(c4nc(C)cc(C)n4)CC3C2)c(C)c1` (stereo not drawn) [Example 277, (5-(4,6-Dimethylpyrimidin-2-yl)hexahydropyrrolo[3,4-c]pyrrol-2(1H)-yl)(4-methoxy-2-methylphenyl)methanone], 680 nM; to `Cc1cc(C)nc(N2CC3CN(C(=O)c4c(F)cccc4F)CC3C2)n1` (stereo not drawn) [Example 278, (2,6-Difluorophenyl)(5-(4,6-dimethylpyrimidin-2-yl)hexahydropyrrolo[3,4-c]pyrrol-2(1H)-yl)methanone], 2270 nM.
On to `Cc1cc(C)nc(N2CC3CN(C(=O)c4cccc(F)c4-c4ncccn4)CC3C2)n1` (stereo not drawn) [Example 283, 2-(4,6-Dimethylpyrimidin-2-yl)-5-[(3-fluoro-2-pyrimidin-2-ylphenyl)carbonyl]octahydropyrrolo[3,4-c]pyrrole], for which the Ki came out at 10 nM.
Still for that read-out and setting: to `Cc1cc(C)nc(N2CC3CN(C(=O)c4cccc(F)c4-c4ccn[nH]4)CC3C2)n1` (stereo not drawn) [Example 284, 2-(4,6-Dimethylpyrimidin-2-yl)-5-{[3-fluoro-2-(1H-pyrazol-5-yl)phenyl]carbonyl}octahydropyrrolo[3,4-c]pyrrole] belongs 8 nM.
For the compound `COc1cccc(C(=O)N2CC3CN(c4nc(C)cc(C)n4)CC3C2)c1-n1ccnn1` (stereo not drawn) [Example 286, 2-(4,6-Dimethylpyrimidin-2-yl)-5-{[3-methoxy-2-(1H-1,2,3-triazol-1-yl)phenyl]carbonyl}octahydropyrrolo[3,4-c]pyrrole], the Ki was 10000 nM.
On the same count and under the same terms, to `Cc1cc(C)nc(N2CC3CN(C(=O)c4cccc(F)c4-n4ccnn4)CC3C2)n1` (stereo not drawn) [Example 287, 2-(4,6-Dimethylpyrimidin-2-yl)-5-{[3-fluoro-2-(1H-1,2,3-triazol-1-yl)phenyl]carbonyl}octahydropyrrolo[3,4-c]pyrrole] belongs 1400 nM; to `COc1ccc(C(=O)N2CC3CN(c4nc(C)cc(C)n4)CC3C2)c(-n2ccnn2)c1` (stereo not drawn) [Example 289], 1800 nM.
Turning to `Cc1nc(N2CC3CN(C(=O)c4ccccc4-n4nccn4)CC3C2)ncc1F` (stereo not drawn) [Example 290, 2-(5-Fluoro-4-methylpyrimidin-2-yl)-5-{[2-(2H-1,2,3-triazol-2-yl)phenyl]carbonyl}octahydropyrrolo[3,4-c]pyrrole], the Ki was found to be 19 nM.
Turning to `O=C(c1ccccc1-n1nccn1)N1CC2CN(c3nc(Cl)ncc3F)CC2C1` (stereo not drawn) [Example 291, 2-(2-Chloro-5-fluoropyrimidin-4-yl)-5-{[2-(2H-1,2,3-triazol-2-yl)phenyl]carbonyl}octahydropyrrolo[3,4-c]pyrrole], the Ki turned out to be 266 nM.
For the compound `Cc1cc(C(C)C)nc(N2CC3CN(C(=O)c4cc(C(C)C)ccc4-n4nccn4)CC3C2)n1` (stereo not drawn) [Example 300, 2-{[5-(1-Methylethyl)-2-(2H-1,2,3-triazol-2-yl)phenyl]carbonyl}-5-[4-methyl-6-(1-methylethyl)pyrimidin-2-yl]octahydropyrrolo[3,4-c]pyrrole], the Ki was 290 nM.
`Cc1ncnc(N2CC3CN(C(=O)c4c(F)cccc4-n4nccn4)CC3C2)n1` (stereo not drawn) [Example 303, 2-{[2-Fluoro-6-(2H-1,2,3-triazol-2-yl)phenyl]carbonyl}-5-(4-methyl-1,3,5-triazin-2-yl)octahydropyrrolo[3,4-c]pyrrole]: the Ki came out at 1700 nM.
Still for that read-out and setting: then `Cc1nc(N2CC3CN(C(=O)c4ccccc4-c4nnc[nH]4)CC3C2)nc(C)c1C` (stereo not drawn) [Example 305, 2-{[2-(4H-1,2,4-Triazol-3-yl)phenyl]carbonyl}-5-(4,5,6-trimethylpyrimidin-2-yl)octahydropyrrolo[3,4-c]pyrrole], with 7 nM; and `Cc1cc(C)nc(N2CC3CN(C(=O)c4ccccc4-c4nc(C)no4)CC3C2)n1` (stereo not drawn) [Example 306, 2-(4,6-Dimethylpyrimidin-2-yl)-5-{[2-(3-methyl-1,2,4-oxadiazol-5-yl)phenyl]carbonyl}octahydropyrrolo[3,4-c]pyrrole], with 39 nM; and `Cc1cc(C)nc(N2CC3CN(C(=O)c4ccccc4-c4ncn(C)n4)CC3C2)n1` (stereo not drawn) [Example 308, 2-(4,6-Dimethylpyrimidin-2-yl)-5-{[2-(1-methyl-1H-1,2,4-triazol-3-yl)phenyl]carbonyl}octahydropyrrolo[3,4-c]pyrrole], with 26 nM.
On the same count and under the same terms, then `Cc1noc(-c2ccccc2C(=O)N2CC3CN(c4nc(C)c(C)c(C)n4)CC3C2)n1` (stereo not drawn) [Example 309, 2-{[2-(3-Methyl-1,2,4-oxadiazol-5-yl)phenyl]carbonyl}-5-(4,5,6-trimethylpyrimidin-2-yl)octahydropyrrolo[3,4-c]pyrrole], with 7 nM.
Same read-out and setting: then `Cc1noc(-c2ccccc2C(=O)N2CC3CN(c4ncc(F)c(C)n4)CC3C2)n1` (stereo not drawn) [Example 310, 2-(5-Fluoro-4-methylpyrimidin-2-yl)-5-{[2-(3-methyl-1,2,4-oxadiazol-5-yl)phenyl]carbonyl}octahydropyrrolo[3,4-c]pyrrole], with 64 nM; and `Cc1nc(N2CC3CN(C(=O)c4ccccc4-c4ncn(C)n4)CC3C2)nc(C)c1C` (stereo not drawn) [Example 311, 2-{[2-(1-Methyl-1H-1,2,4-triazol-3-yl)phenyl]carbonyl}-5-(4,5,6-trimethylpyrimidin-2-yl)octahydropyrrolo[3,4-c]pyrrole], with 7 nM.

The test is the same for the next values; noted with them: read-out: OR 2 Ki.
On to `Cc1nc(N2CC3CN(C(=O)c4c(F)cccc4-n4nccn4)CC3C2)cc(=O)[nH]1` (stereo not drawn) [Example 252, 6-[5-{[2-Fluoro-6-(2H-1,2,3-triazol-2-yl)phenyl]carbonyl}hexahydropyrrolo[3,4-c]pyrrol-2(1H)-yl]-2-methylpyrimidin-4(3H)-one], for which the Ki is at least 10000 nM.
